Assay results as given in patent US20240342216A1, “METHODS OF TREATING CANCER” (Therapeutics By Design, LLC, priority 2021, published 2024).
“Also recorded” adds a separate entry of the source.

B1: BMP-7: bone morphogenetic protein-7, member of the transforming growth factor-beta superfamily (protein, UniProt P18075 293-431, looked up)
Bone morphogenetic protein 7: STGSKQRSQNRSKTPKNQEALRMANVAENSSSDQRQACKKHELYVSFRDLGWQDWIIAPEGYAAYYCEGECAFPLNSYMNATNHAIVQTLVHFINPETVPKPCCAPTQLNAISVLYFDDSSNVILKKYRNMVVRACGCH

Columns and labels:
[1] = system: human breast cancer stem cells; test: mammosphere (tumorsphere) formation assay, self-renewal in vitro; format: cell-based; conditions: for inhibition of mammosphere / tumorsphere formation: non-adherent culture, serum-free stem cell medium, 5 to 7 days
Description: Isolated human breast cancer stem cells treated with BMP-7 (500 ng/ml) for 7 days in non-adherent culture.
To investigate Peptide 123 (SEQ ID NO: 1) and BMP-7 effects on cancer stem cell function, their ability to influence self-renewal in vitro by using the mammosphere assay was examined. The mammosphere assay was developed as a method to propagate mammary epithelial stem cells (MaSC) in vitro by Dontu et al. (Genes Dev 17: 1253-1270 (2003)).
A procedure as described in manufacturer's manual (ProMab, California) was followed to grow cancer stem cells into mammospheres. For mammosphere culture, isolated human breast cancer stem cells were seeded in six well ultralow adherence plates (Corning Inc., Corning, NY, USA) and grown as non-adherent cell suspensions in serum-free stem cell culture medium (ProMab, California). Primary and secondary mammosphere formation was achieved by using weekly trypsinization and dissociation, followed by reseeding in ultralow adherence six well plates.

[2] = system: human breast cancer stem cells; test: FACS quantification of CD44+ and E-cadherin+ cells; format: cell-based; conditions: for percent loss of CD44+ cells / percent gain in E-cadherin+ cells: non-adherent culture 8 days, vs untreated; for change in CD44+ cells (stem cell phenotype), in words / change in E-Cadherin+ cells (epithelial phenotype), in words: vs untreated control
Description: Untreated cells were incubated with APC labeled mouse anti-human antibody to CD44 antibody and FITC labeled rat anti-human E-Cadherin antibody. Cells were gated to exclude events in water and events due to cell death and debris. Cells were then gated to identify CD44+ and E-Cadherin+ populations based on corresponding fluorescence activity and labeled R7 and R11 respectively. […] Untreated cells were incubated with corresponding isotype antibodies, APC labeled mouse IgG1 and FITC labeled mouse IgG1. Cells were gated to exclude events in water and events due to cell death and debris.
(§1) Cells were plated and incubated for 24 hours to form tumorspheres. On day 2, cells were treated with 300 μM P123, followed by subsequent treatments on days 3, 5, and 8. Cells were then incubated with APC labeled mouse anti-human CD44 antibody and FITC labeled rat anti-human E-Cadherin antibody. Cells were gated to exclude events in water and events due to cell death and debris. Cells were then gated to identify CD44+ and E-Cadherin+ populations based on corresponding fluorescence activity and labeled R7 and R11 respectively. […] Cells were treated with P123 as described in (A). Cells were then incubated with corresponding isotype antibodies, APC labeled mouse IgG1 and FITC labeled mouse IgG1. Cells were gated to exclude events in water and events due to cell death and debris.
as §1, with “BMP-7 at 430 ng/ml with” for “300 μM P123, followed by”, “treatments at 362 ng/ml” for “treatments”, “day” for “days”, “3, 314 ng/ml on day” for “3,”, “277 ng/ml on day 8 (media was added at 10% volume resulting in decreased concentrations).” for “8.”, “BMP-7” for “P123”
Differentiation of chemo-resistant cancer stem cells, specifically a loss of its stem cell phenotype and self-renewal ability, could be a viable approach to the treatment of tumor recurrence and metastasis (Chirasani S R, Sternjak A, Wend P, et al. Bone morphogenetic protein-7 release from endogenous neural precursor cells suppresses the tumourigenicity of stem-like glioblastoma cells. Brain 2010, 133:1961-1972). Although this approach may or may not directly kill the cancer cells, it could make CSCs more responsive to conventional chemotherapies. Therefore, Peptide 123 and BMP-7 were examined to determine if they affected differentiation of human breast cancer stem cells. Sensitive flow cytometry method (Gupta V et al., Methods Mol Biol. 2011, 716: 179-191) to quantify CD44+, indicating stem cell phenotype, and E-cadherin+, indicating epithelial phenotype cells, after treatment with or without P123 (SEQ ID NO: 1) and BMP-7. Human breast cancer stem cells were grown in non-adherent cell suspension in serum-free medium for 8 Days. […] Importantly, the percent loss of CD44+ cells after treatment with the P123, 50%, was greater than that after treatment with BMP-7, 19% (FIGS. 4 and 5). Furthermore, a gain in E-cadherin+ cells was observed, which was proportional to the loss of CD44+ cells (FIGS. 4-6). Similarly, the percent gain in E-cadherin+ cells after treatment with P123, 50%, was greater than that after treatment with BMP-7, 19%, (FIG. 7).

[3] = system: bulk tumor cell growth from prostate cancer; conditions: by activating SMAD 1/5/8 signaling; Bosukonda et al. 2009; cited from earlier work

| Molecule | inhibition of mammosphere / tumorsphere formation ([1]; 300 μM) | inhibition of mammosphere / tumorsphere formation ([1]; 300 μM, listed as P123) | percent loss of CD44+ cells ([2]; 300 uM, treated days 2, 3, 5, 8) [%] | percent gain in E-cadherin+ cells ([2]; 300 uM) [%] | change in CD44+ cells (stem cell phenotype), in words ([2]; 300 uM, listed as P123) | change in E-Cadherin+ cells (epithelial phenotype), in words ([2]; 300 uM, listed as P123) | inhibition of bulk tumor cell growth from prostate cancer [3] | mammosphere formation after withdrawal of treatment ([1]; 500 ng/ml for 7 days, then 7 days with no treatment) | inhibition of mammosphere / tumorsphere formation ([1]; 500 ng/ml) | percent gain in E-cadherin+ cells ([2]; 314-430 ng/ml) [%] | percent loss of CD44+ cells ([2]; 314-430 ng/ml) [%] | change in CD44+ cells (stem cell phenotype), in words ([2]; 314-430 ng/ml) | change in E-Cadherin+ cells (epithelial phenotype), in words ([2]; 314-430 ng/ml) |
| --- | --- | --- | --- | --- | --- | --- | --- | --- | --- | --- | --- | --- | --- |
| CYFDDSSNVLCKKYRS [Peptide 123, TDFRP, a peptide agonist of BMP signaling] | profound inhibition of tumorsphere formation | profound inhibition of mammosphere formation | 50 | 50 | marked decline in CD44+ cells; also recorded: marked decrease in CD44+ cells | marked increase in E-Cadherin+ cells; also recorded: majority of P123 treated cells were E-Cadherin+ | capable of inhibiting bulk tumor cell growth from prostate cancer |  |  |  |  |  |  |
| B1 |  |  |  |  |  |  |  | regained the ability to form tumorspheres; also recorded: significant increase in Mammosphere formation | inhibited tumorsphere formation; also recorded: moderate inhibition of mammosphere formation | 19 | 19 | marked decline in CD44+ cells; also recorded: a decrease in CD44+ cells | an increase in E-Cadherin cells; also recorded: an increase E-Cadherin+ with a large portion of CD44+ remaining |
